Data reported in patent EP0516186A2, “Nucleosides and nucleoside analogues, pharmaceutical composition and processes for the preparation of the compounds” (priority 1987, dated 1988).

Assays:
Type in all cases: cell-based
[1] = system: HIV (HTLV-IIIB); test: Effect on HIV in H9 cells (frequency of HIV antigen containing cells, immunofluorescence); conditions: Human immunodeficiency virus 1; H9 cells exposed to HIV (HTLV-IIIB), incubated 6 - 7 days; read-out: Concentration (µM) for 50 % inhibition (IC₅₀) of human immuno deficiency virus multiplication in cell culture
Procedure: Test I. Effect of compounds of the formula I on HIV in H9 cells
Materials and methods: HIV infection of H9 cells
H9 cells, 10⁵ cells per well on a 24 well plate, suspended in 2 ml RPMI-medium containing 10 % fetal calf serum, 100 µg/ml penicillin, 10 µg/ml streptomycin sulfate and 2 µg/ml polybrene are exposed to HIV (HTLV-IIIB) and different concentrations of the test compounds. The plates are incubated at 37°C in 5 % CO₂ for 6 - 7 days. The contents in each well is then homogenized with a pipette and transferred to a centrifuge tube. After centrifugation for 10 min at 1500 rpm the supernatent is removed and the cell pellet is analyzed by fixing in methanol on glass plates. Human HIV positive serum diluted 1:80 or 1:160 is added and incubated for 30 min at 37°. The plate is then washed with phosphate-buffered saline (PBS) containing Ca²⁺ and Mg²⁺. Sheep antihuman conjugate (FITC) is added and after a new incubation the plate is again washed with PBS. Contrast staining is done with Evans blue and after drying the frequency of HIV antigen containing cells is determined in a microscope.

[2] = Cellular toxicity in F5000 cells (cell multiplication); conditions: F5000 human embryo cells, number of cells after 48 hrs; 50 % inhibition of cell multiplication; read-out: TC₅₀(µM) F5000
Procedure: (§1) Test II. Cellular toxicity
(§2) F5000 cells, which are human embryo cells, 1x10⁵ cells per plate, are incubated in Eagle's minimal essential medium, supplemented with Earle's salts, non-essential amino acids, 10 % fetal calf serum, 10 mM hepes, 70 mg/l penicillin and 100 mg/l streptomycin, in absence or presence of test compounds. The number of cells per plate is determined after 48 hrs. Cells incubated in absence of test compounds underwent one cell division cycle. The results are given as TC₅₀, which is the concentration of a compound which gives 50 % inhibition of cell multiplication.

[3] = Cellular toxicity in H9 cells (cell multiplication); conditions: human, number of cells after 48 hrs, 50 % inhibition of cell multiplication, read-out: TC₅₀(µM) H9
Procedure: as §1
H₉ cells, 2x10⁷ cells per plate, are incubated in RPMI-1640 medium containing 10 % fetal calf serum, 70 mg/l penicillin, 100 mg/l streptomycin and 10 mM hepes, in absence or precence of test compounds. The number of cells per plate is determined after 48 hrs. Cells incubated in absence of test compound then underwent two cell division cycles.
as §2

SMILES | IC50 [1] | CC50 at 48 h [2] | CC50 at 48 h [3]
CCc1cn([C@@H]2C[C@H](O)[C@@H](CO)O2)c(=O)[nH]c1=O [VIP 289, 1-(2-deoxy-α-D-ribofuranosyl)-5-ethyluracil] | 10 µM | 1000 µM | –
CCCc1cn([C@@H]2C[C@H](F)[C@@H](CO)O2)c(=O)[nH]c1=O [VSA 409, 1-(3-F-2,3-dideoxy-α-D-ribofuranosyl)-5-propyluracil] | 2.5 µM | – | –
CCc1cn([C@@H]2C[C@H](F)[C@@H](CO)O2)c(=O)[nH]c1=O [VSA 411, 1-(3-F-2,3-dideoxy-α-D-ribofuranosyl)-5-ethyluracil] | 0.1 µM | 500 µM | 400 µM
Cc1cn([C@@H]2C[C@H](F)[C@@H](CO)O2)c(=O)[nH]c1=O [VSA 419, 1-(3-F-2,3-dideoxy-α-D-ribofuranosyl)thymine] | – | 250 µM | –
